Some test systems named below: LXFL 529; M19-MEL; KM-20L2; DMS-114; DMS-273; SNB-78; HOP-18; XF498; RXF 631.
Holding throughout (test): NCI-60 cell line screen, 48 h

Each structure is given as a SMILES string.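 Dose response: 5 concentrations. Exposure: 48 h. Format: 96-well plates. Endpoint: linear interpolation; highest concentration if not reached. GI50 marks 50% less growth.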 Calls of active or inactive are those of the source. Cut-off read from the data, not from the text of the source: active = GI50 up to about 1.1 µM and inactive = higher.

With `CCCCCCC(=O)C/C(CCC(=O)N(Cc1ccccc1)Cc1ccccc1)=N\Nc1ccc([N+](=O)[O-])cc1[N+](=O)[O-]`, the GI50 in the experiment on LXFL 529 is 31 µM (inactive); with M19-MEL, 55.7 µM (inactive); in the experiment on KM-20L2 it was 56.8 µM (inactive); with DMS-114, 17 µM (inactive); in the experiment with DMS-273 it was 55.8 µM (inactive); in the experiment on SNB-78, > 100 µM (inactive). Besides, the GI50 with HOP-18 is 55.1 µM (inactive).

Regarding `COc1cc2c(cc1OC)C(Cl)C(c1ccc(Br)cc1)=C2Cl` (centres undefined), the GI50 in the experiment with M19-MEL was 16.4 µM (inactive); with KM-20L2, 18.5 µM (inactive); in the experiment on DMS-114, 9.06 µM (inactive); in the experiment with DMS-273, 14.3 µM (inactive); with SNB-78, 13.5 µM (inactive); in the experiment with HOP-18, 20.9 µM (inactive).

As for `N#CC1(C#N)C2(c3ccccc3)OC(c3ccccc3)(c3cc4ccccc4cc32)C1(C#N)C#N`, the GI50 in the experiment with LXFL 529 was 1.62 µM (inactive); in the experiment with KM-20L2 it was 13.3 µM (inactive); in the experiment with DMS-114, 7.89 µM (inactive); in the experiment on DMS-273, 16.3 µM (inactive); in the experiment on HOP-18, 3.47 µM (inactive).

Regarding `O=C1c2ccoc2C(=O)c2oc(=O)ccc21`, the GI50 in the experiment on XF498 is 25.3 µM (inactive); in the experiment with LXFL 529 it was 6.75 µM (inactive); in the experiment on M19-MEL, 1.56 µM (inactive); with KM-20L2, > 46.1 µM (inactive); with DMS-114, 2.05 µM (inactive); with DMS-273 it was 16.8 µM (inactive). Besides, the GI50 with SNB-78 is 12.2 µM (inactive); in the experiment on HOP-18, 21.6 µM (inactive).

Consider `COC(=O)c1cc(O)ccc1NC(=O)c1ccc(O)cc1`, for which the GI50 with XF498, in the experiment on LXFL 529, in the experiment on M19-MEL, in the experiment with KM-20L2, in the experiment with RXF 631 and with DMS-114 was > 100 µM (inactive) each time. The GI50 in the experiment with SNB-78 and in the experiment with HOP-18 was > 100 µM (inactive) in each case.

Consider `COc1c2nc(CCl)[nH]c(=O)c2c(OC)c2nc(CCl)[nH]c(=O)c12`, for which the GI50 with XF498, in the experiment on LXFL 529, in the experiment on M19-MEL, in the experiment on KM-20L2, in the experiment on DMS-114 and with DMS-273 was > 100 µM (inactive) each time. In addition, the GI50 with SNB-78 and in the experiment on HOP-18 was > 100 µM (inactive) each time.

Consider `COC(=O)N1CCc2c(nc(N(C)CCO)[nH]c2=O)C1`, for which the GI50 with XF498, in the experiment on LXFL 529, in the experiment on M19-MEL, in the experiment with KM-20L2, in the experiment with DMS-114 and in the experiment with DMS-273 was > 100 µM (inactive) throughout. Besides, the GI50 in the experiment with SNB-78 and with HOP-18 was > 100 µM (inactive) throughout.

`CN/N=C(\C)C(CN1CCCCC1)C(C1=C(O)c2ccccc2OC1)c1ccccc1` (centres undefined): the GI50 in the experiment with XF498 was > 100 µM (inactive); in the experiment on LXFL 529, > 100 µM (inactive); in the experiment on M19-MEL, > 100 µM (inactive); in the experiment on KM-20L2, > 100 µM (inactive); in the experiment on RXF 631, > 100 µM (inactive); with DMS-114, 79.3 µM (inactive). The GI50 with DMS-273 and in the experiment with SNB-78 was > 100 µM (inactive) each time.

As to `CC1(C)c2ccccc2N2O[C@@H]3C(=O)N(c4ccccc4)C(=O)[C@@H]3C21c1ccccc1` (some centres undefined), the GI50 in the experiment on XF498, with LXFL 529, in the experiment with M19-MEL, in the experiment on DMS-114, in the experiment with DMS-273 and with SNB-78 was > 100 µM (inactive) in each case.

As to `N#C/N=C(/NCCc1c[nH]c2ccccc12)Oc1ccccc1`, the GI50 in the experiment with XF498 is 21.1 µM (inactive); in the experiment on LXFL 529, 72.8 µM (inactive); in the experiment on M19-MEL, 94.8 µM (inactive); with KM-20L2, 22.5 µM (inactive); with DMS-114, 40.9 µM (inactive); with DMS-273, > 100 µM (inactive). For the same compound, the GI50 in the experiment with SNB-78 was 98.9 µM (inactive).

In the case of `CC(C)OP(=O)(NC(=S)c1ccccc1)OC(C)C`, the GI50 is > 100 µM (inactive) in the experiment with XF498; 57.7 µM (inactive) with LXFL 529; > 100 µM (inactive) in the experiment on M19-MEL; > 100 µM (inactive) in the experiment on KM-20L2; 70.8 µM (inactive) in the experiment on DMS-114; > 100 µM (inactive) in the experiment with DMS-273. Moreover, the GI50 with SNB-78 is > 100 µM (inactive).

For `N#Cc1c(-c2ccco2)cc(-c2ccccc2)nc1O`, the GI50 in the experiment with LXFL 529, with M19-MEL, in the experiment on KM-20L2, with RXF 631, in the experiment with DMS-273 and with SNB-78 was > 100 µM (inactive) each time.

For the compound `CCC(=O)C1=C(OC(C)=O)C2Cc3c(n(C)c4ccccc34)C(C1)N2C` (centres undefined), the GI50 in the experiment with LXFL 529 was 29 µM (inactive); in the experiment with M19-MEL, 41.4 µM (inactive); with KM-20L2, 35.9 µM (inactive); in the experiment on RXF 631, 22.9 µM (inactive); in the experiment on DMS-114 it was 26.7 µM (inactive); with DMS-273, 20 µM (inactive). Also, the GI50 in the experiment with SNB-78 is 22.3 µM (inactive); in the experiment with HOP-18 it was 25.4 µM (inactive).

In the case of `CC1CCP(=O)(c2ccccc2)c2ccccc21` (centres undefined), the GI50 with XF498 was < 0.01 µM (active); with LXFL 529, 43.6 µM (inactive); in the experiment on M19-MEL it was 24.4 µM (inactive); in the experiment with KM-20L2, > 100 µM (inactive); with DMS-114 it was 38.4 µM (inactive); with DMS-273, 28.2 µM (inactive). The GI50 in the experiment on SNB-78 and with HOP-18 was > 100 µM (inactive) each time.

In the case of `COC(=O)C1=C(C(=O)OC)SC(=CC#CC=C2SC(C(=O)OC)=C(C(=O)OC)S2)S1`, the GI50 with XF498 was 4.53 µM (inactive); in the experiment with LXFL 529, 14.3 µM (inactive); with M19-MEL, 40.5 µM (inactive); with KM-20L2, 11.9 µM (inactive); in the experiment with DMS-114 it was 35.2 µM (inactive); in the experiment with DMS-273 it was 10.5 µM (inactive). Also, the GI50 in the experiment with SNB-78 is 12.2 µM (inactive); with HOP-18, 8.87 µM (inactive).

`N/N=C1\C(=O)N(CCc2ccccc2)C(=O)C1C(=O)NCCc1ccccc1` (centres undefined): the GI50 in the experiment with XF498, in the experiment on LXFL 529, in the experiment with M19-MEL, in the experiment with KM-20L2, with RXF 631 and with DMS-273 was > 100 µM (inactive) throughout. Moreover, in the experiment on SNB-78, the GI50 was > 100 µM (inactive).

As for `CCOC1c2nc3ccccc3nc2-c2ccccc2N1C(C)=O` (centres undefined), the GI50 is > 100 µM (inactive) in the experiment with XF498; 70.6 µM (inactive) in the experiment with LXFL 529; > 100 µM (inactive) in the experiment on M19-MEL; > 100 µM (inactive) in the experiment with KM-20L2; 74.5 µM (inactive) in the experiment with RXF 631; > 100 µM (inactive) in the experiment on DMS-114. Further, the GI50 with DMS-273 is 93.3 µM (inactive); in the experiment on SNB-78, > 100 µM (inactive); in the experiment with HOP-18 it was 51.6 µM (inactive).

As to `CN1C(=O)n2c(nc3ccccc32)C(N=[N+]=[N-])(N=[N+]=[N-])C1=O` (centres undefined), the GI50 in the experiment with XF498, in the experiment on LXFL 529, with M19-MEL, in the experiment with KM-20L2, with RXF 631 and in the experiment on DMS-114 was > 100 µM (inactive) in each case. For the same compound, the GI50 with DMS-273, in the experiment on SNB-78 and in the experiment on HOP-18 was > 100 µM (inactive) throughout.

Take `CC(C)(Oc1ccc(/C=C/C(=O)c2ccc(Cl)cc2)cc1)C(=O)Nc1c(Cl)cccc1Cl`: the GI50 was 17.7 µM (inactive) with XF498; 13.9 µM (inactive) in the experiment on LXFL 529; 14.1 µM (inactive) with M19-MEL; 20.3 µM (inactive) with KM-20L2; 19.5 µM (inactive) in the experiment on RXF 631; 11.6 µM (inactive) in the experiment on DMS-114. Further, in the experiment with HOP-18, the GI50 was 80.4 µM (inactive).

Consider `COc1ccc2c3c(coc13)C(CCC(=O)O)CC2` (centres undefined), for which the GI50 was 48.3 µM (inactive) with XF498; > 100 µM (inactive) in the experiment with LXFL 529; > 100 µM (inactive) in the experiment on M19-MEL; > 100 µM (inactive) with KM-20L2; > 100 µM (inactive) in the experiment on RXF 631; > 100 µM (inactive) in the experiment with DMS-114. Also, the GI50 is > 100 µM (inactive) with DMS-273, > 100 µM (inactive) in the experiment with SNB-78 and 88.5 µM (inactive) in the experiment with HOP-18.

The record behind these values is ChEMBL document CHEMBL1201862, “PubChem BioAssay data set” (2004).
